# From the Kinase Knowledgebase extract (Sharma et al. 2016)
# Biological target: EGFR (UniProt P00533)
# Conditions: concentration not given here
# Chain of EGFR (P00533 whole entry, looked up): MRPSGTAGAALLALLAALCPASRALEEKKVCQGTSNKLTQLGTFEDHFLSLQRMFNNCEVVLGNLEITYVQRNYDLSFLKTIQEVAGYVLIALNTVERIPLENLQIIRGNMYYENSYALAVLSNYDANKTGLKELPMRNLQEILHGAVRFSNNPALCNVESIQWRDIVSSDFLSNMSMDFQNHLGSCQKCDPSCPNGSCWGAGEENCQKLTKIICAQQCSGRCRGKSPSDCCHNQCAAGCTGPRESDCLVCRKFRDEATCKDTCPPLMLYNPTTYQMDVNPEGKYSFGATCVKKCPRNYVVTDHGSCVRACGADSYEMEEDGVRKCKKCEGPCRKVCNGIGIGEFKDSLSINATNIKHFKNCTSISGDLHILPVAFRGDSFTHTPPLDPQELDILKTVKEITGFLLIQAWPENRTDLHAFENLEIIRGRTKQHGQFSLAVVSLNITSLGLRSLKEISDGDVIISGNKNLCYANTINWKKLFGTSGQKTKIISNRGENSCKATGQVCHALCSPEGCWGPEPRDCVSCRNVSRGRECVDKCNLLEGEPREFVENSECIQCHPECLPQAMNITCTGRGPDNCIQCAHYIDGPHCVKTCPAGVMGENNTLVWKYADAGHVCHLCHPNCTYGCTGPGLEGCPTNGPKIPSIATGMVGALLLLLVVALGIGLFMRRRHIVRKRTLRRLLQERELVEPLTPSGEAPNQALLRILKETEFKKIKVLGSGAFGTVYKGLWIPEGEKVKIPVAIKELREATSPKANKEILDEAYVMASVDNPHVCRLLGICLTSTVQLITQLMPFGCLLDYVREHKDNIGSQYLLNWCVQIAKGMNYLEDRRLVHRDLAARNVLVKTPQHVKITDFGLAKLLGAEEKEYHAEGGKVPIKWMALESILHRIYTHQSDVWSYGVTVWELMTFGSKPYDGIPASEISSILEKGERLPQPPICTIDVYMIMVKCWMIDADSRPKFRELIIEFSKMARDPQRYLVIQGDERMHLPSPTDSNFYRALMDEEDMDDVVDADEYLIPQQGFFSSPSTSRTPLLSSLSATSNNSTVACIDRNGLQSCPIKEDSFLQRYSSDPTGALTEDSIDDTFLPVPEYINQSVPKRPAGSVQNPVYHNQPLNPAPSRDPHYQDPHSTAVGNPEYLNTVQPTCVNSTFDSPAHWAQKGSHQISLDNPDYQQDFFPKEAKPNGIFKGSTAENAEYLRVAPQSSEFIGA
row,SMILES,inhibition [%]
1,COC(=O)c1ccc(-c2ccc(-c3ccccc3)cc2O)cc1,14
2,O=C(NCc1ccccc1)c1ccc(-c2ccc(-c3ccccc3)cc2O)cc1,0
3,COCOc1cc(-c2ccccc2)ccc1-c1ccc(C(=O)OCC(C)CC(C)(C)C)cc1 (centres undefined),0
4,O=C(NCc1ccccc1)c1ccc(-c2cccc(-c3ccccc3)c2O)cc1,0
5,COCOc1cc(-c2ccccc2)ccc1-c1ccc(C(=O)NCc2ccccc2)cc1,0

# Now from value to compound:
row,inhibition [%],SMILES
1,0,CC(C)(C)c1cc(O)cc(-c2ccc(CO)cc2)c1
2,0,COCOc1cc(C(C)(C)C)ccc1-c1ccc(C(=O)OC)cc1
3,0,CC(C)(C)c1cc(O)cc(-c2ccc(C(=O)NCc3ccccc3)cc2)c1
4,0,CC(C)(C)c1ccc(-c2ccc(C(=O)O)cc2)c(O)c1
5,0,COCOc1cc(C(C)(C)C)ccc1-c1ccc(C(=O)NCc2ccccc2)cc1

# Biological target: EGFR (Hamster) (UniProt P00533)
# Conditions: er22, dose or concentration not given here
# Chain of EGFR (Hamster) (P00533 whole entry, looked up): as above
row,SMILES,inhibition [%]
1,CC(C)(C)c1ccc(-c2ccc(C(=O)O)cc2)c(O)c1,0
2,COC(=O)c1ccc(-c2cc(O)cc(C(C)(C)C)c2)cc1,0
3,COC(=O)c1ccc(-c2ccc(C(C)(C)C)cc2O)cc1,0
4,O=C(NCc1ccccc1)c1ccc(-c2cccc(-c3ccccc3)c2O)cc1,0
